In one experiment the target is T1, TRβ (Homo sapiens, UniProt P10828).
T1 construct: expressed in transfected cells; host or cells: HEK293
T1 sequence (P10828 217-461 limits assumed): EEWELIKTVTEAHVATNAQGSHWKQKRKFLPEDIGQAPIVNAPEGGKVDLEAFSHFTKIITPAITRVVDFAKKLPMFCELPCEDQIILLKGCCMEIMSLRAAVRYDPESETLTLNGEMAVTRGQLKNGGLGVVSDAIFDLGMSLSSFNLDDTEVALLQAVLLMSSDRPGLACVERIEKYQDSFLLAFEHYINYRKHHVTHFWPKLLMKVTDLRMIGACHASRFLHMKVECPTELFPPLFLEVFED
The experiment can be described thus: TR reporter-gene assay (Gal4 DBD hybrid, luciferase), TRβ. It is filed as cell-based. The conditions noted are these: for T3-SI (selectivity index, EC50 (TRα)/EC50 (TRβ)): class symbols. The protocol: (§1) Compounds were tested for thyroid-hormone receptor activity using TR reporter-gene assays. Reporter cells used in the assays express a TR-receptor hybrid (either TRα or TRβ) in which the native N-terminal DNA binding domain (DBD) has been replaced with that of the yeast Gal4 DBD. The reporter gene, firefly luciferase, is functionally linked to the Gal4 upstream activation sequence (UAS). Both cell lines were derived from human embryonic kidney (HEK293).
(§2) Step 1: A suspension of reporter cells was prepared in cell recovery medium containing 10% charcoal-stripped FBS, and dispensed into assay plates. The plates were pre-incubated for 6 hours in a cell culture incubator (37° C./5% CO2/85% humidity).
(§3) These intermediate stocks were subsequently diluted directly into compound screening medium containing 10% charcoal-stripped FBS to generate “2×-concentration” treatment media (containing 0.2, 0.4 or 0.8% DMSO).
(§4) Step 3: At the end of the pre-incubation period, culture media were discarded from the assay plates, and all wells received 100 μl of compound screening medium. 100 μl of each of the previously prepared “2×-concentration” treatment media were dispensed into duplicate assay wells, thereby achieving the desired final treatment concentrations. The final concentration of DMSO in all assay wells was 0.1, 0.2 or 0.4%. Assay plates were incubated for 24 hr in a cell culture incubator (37° C./5% CO2/85% humidity).
(§5) Step 4: At the 24 h assay endpoint, treatment media were discarded and 100 µl/well of luciferase detection reagent was added. Relative luminometer units (RLUs) were quantified from each assay well.

A further experiment has as its target T2, TRα (Homo sapiens, UniProt P10827).
T2 construct: expressed in transfected cells; host or cells: HEK293
T2 sequence (P10827 1-410 isoform P10827-2): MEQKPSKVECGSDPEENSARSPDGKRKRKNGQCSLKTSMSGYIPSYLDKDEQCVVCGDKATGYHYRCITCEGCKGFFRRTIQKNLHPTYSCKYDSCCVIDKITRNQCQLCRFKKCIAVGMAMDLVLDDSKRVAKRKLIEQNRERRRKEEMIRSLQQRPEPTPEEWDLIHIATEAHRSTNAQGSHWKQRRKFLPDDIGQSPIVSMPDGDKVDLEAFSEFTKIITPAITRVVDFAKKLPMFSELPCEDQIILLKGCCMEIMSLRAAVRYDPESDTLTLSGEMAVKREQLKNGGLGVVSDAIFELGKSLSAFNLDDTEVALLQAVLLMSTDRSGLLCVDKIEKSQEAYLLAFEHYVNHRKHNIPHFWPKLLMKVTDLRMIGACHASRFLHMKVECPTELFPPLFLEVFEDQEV
The experiment in a line: TR reporter-gene assay (Gal4 DBD hybrid, luciferase), TRα. It is filed as cell-based. As to the method:
as §1, §2, §3, §4, §5

[1] abbreviates: HEK293-derived reporter cells, 24 hr treatment, read-out: TRβ EC50.
Setting [2] is: HEK293-derived reporter cells, 24 hr treatment, read-out: TRα EC50.

SMILES strings stand for the structures. Like-named read-outs stand apart in the source and are kept apart here.

These results are taken from patent US12528761B2, “Thyromimetics” (Autobahn Therapeutics, Inc., priority 2020, dated 2026).

On to `Cc1cc(CC(=O)O)cc(C)c1Cc1ccc(O)c(C(C)c2ccc(F)cc2)c1` (stereo not shown) [Compound 2, 2-(4-(3-(1-(4-fluorophenyl)ethyl)-4-hydroxybenzyl)-3,5-dimethylphenyl)acetic acid], for which the EC50 lay in the range of 10 to 100 nM at TRβ (setting [1]) and 100 to 1000 nM on TRα (setting [2]). Also, on TRβ, the “T3-SI (selectivity index, EC50 (TRα)/EC50 (TRβ))” value is “++ (3× < T3-SI ≤ 30×)”.

In the case of `Cc1cc(NC(=O)CC(=O)O)cc(C)c1Cc1ccc(O)c(C(C)c2ccc(F)cc2)c1` (stereo not shown) [Compound 4, 3-((4-(3-(1-(4-fluorophenyl)ethyl)-4-hydroxybenzyl)-3,5-dimethylphenyl)amino)-3-oxopropanoic acid], the half-maximal effective concentration (EC50) at TRβ (setting [1]) lay in the range of 10 to 100 nM; on TRα (setting [2]), 100 to 1000 nM. For the same compound, the “T3-SI (selectivity index, EC50 (TRα)/EC50 (TRβ))” value at TRβ is “++ (3× < T3-SI ≤ 30×)”.

With `CC(C)c1cc(Cc2c(Cl)cc(CC(=O)O)cc2Cl)ccc1O` [Compound 6, 2-(3,5-dichloro-4-(4-hydroxy-3-isopropylbenzyl)phenyl)acetic acid], the EC50 on TRβ (setting [1]) and on TRα (setting [2]) was 100 to 1000 nM in each case. Further, the “T3-SI (selectivity index, EC50 (TRα)/EC50 (TRβ))” value at TRβ was “++ (3× < T3-SI ≤ 30×)”.

As for `CC(c1ccc(F)cc1)c1cc(Cc2c(Cl)cc(CC(=O)O)cc2Cl)ccc1O` (stereo not shown) [Compound 9, 2-(3,5-dichloro-4-(3-(1-(4-fluorophenyl)ethyl)-4-hydroxybenzyl)phenyl)acetic acid], the values for the EC50 at TRβ (setting [1]) and on TRα (setting [2]) were under 10 nM and 10 to 100 nM, respectively. Also, the “T3-SI (selectivity index, EC50 (TRα)/EC50 (TRβ))” value on TRβ is “++ (3× < T3-SI ≤ 30×)”.

On to `CC(C)c1cc(Cc2c(Cl)cc(CCC(=O)O)cc2Cl)ccc1O` [Compound 11, 3-(3,5-dichloro-4-(4-hydroxy-3-isopropylbenzyl)phenyl)propanoic acid], for which the EC50 on TRβ (setting [1]) and on TRα (setting [2]) was 10 to 100 nM throughout. Also, the “T3-SI (selectivity index, EC50 (TRα)/EC50 (TRβ))” value on TRβ was “++ (3× < T3-SI ≤ 30×)”.

In the case of `CC(C)c1cc(Cc2c(Cl)cc(/C=C/CC(=O)O)cc2Cl)ccc1O` [Compound 15, (E)-4-(3,5-dichloro-4-(4-hydroxy-3-isopropylbenzyl)phenyl)but-3-enoic acid], the EC50 at TRβ (setting [1]) and on TRα (setting [2]) was 10 to 100 nM in each case. Also, the “T3-SI (selectivity index, EC50 (TRα)/EC50 (TRβ))” value at TRβ is “++ (3× < T3-SI ≤ 30×)”.

Turning to `CC(c1ccc(F)cc1)c1c(O)ccc(Cc2c(Cl)cc(CCC(=O)O)cc2Cl)c1F` (stereo not shown) [Compound 18, 3-(3,5-dichloro-4-(2-fluoro-3-(1-(4-fluorophenyl)ethyl)-4-hydroxybenzyl)phenyl)propanoic acid], the EC50 at TRβ (setting [1]) and on TRα (setting [2]) was 10 to 100 nM in each case. For the same compound, at TRβ, the “T3-SI (selectivity index, EC50 (TRα)/EC50 (TRβ))” value was “+ (T3-SI ≤ 3×)”.

Take `CC(C)c1cc(Cc2c(Cl)cc(NCC(=O)O)cc2Cl)ccc1O` [Compound 20, (3,5-dichloro-4-(4-hydroxy-3-isopropylbenzyl)phenyl)glycine]: the EC50 at TRβ (setting [1]) and at TRα (setting [2]) was 10 to 100 nM each time. Further, the “T3-SI (selectivity index, EC50 (TRα)/EC50 (TRβ))” value on TRβ is “++ (3× < T3-SI ≤ 30×)”.

For `CC(C)c1cc(Cc2c(Cl)cc(NC(=O)CC(=O)O)cc2Cl)ccc1O` [Compound 22, 3-((3,5-dichloro-4-(4-hydroxy-3-isopropylbenzyl)phenyl)amino)-3-oxopropanoic acid], the EC50 at TRβ (setting [1]) and at TRα (setting [2]) was 100 to 1000 nM in each case. Besides, the “T3-SI (selectivity index, EC50 (TRα)/EC50 (TRβ))” value on TRβ is “++ (3× < T3-SI ≤ 30×)”.

Consider `CC(C)c1cc(Cc2c(Cl)cc(OCCCC(=O)O)cc2Cl)ccc1O` [Compound 24, 4-(3,5-dichloro-4-(4-hydroxy-3-isopropylbenzyl)phenoxy)butanoic acid], for which the EC50 on TRβ (setting [1]) and on TRα (setting [2]) was 100 to 1000 nM each time. Also, the “T3-SI (selectivity index, EC50 (TRα)/EC50 (TRβ))” value at TRβ is “+ (T3-SI ≤ 3×)”.

With `CC(C)c1cc(Cc2c(Cl)cc(OCCCCC(=O)O)cc2Cl)ccc1O` [Compound 26, 5-(3,5-dichloro-4-(4-hydroxy-3-isopropylbenzyl)phenoxy)pentanoic acid], the EC50 on TRβ (setting [1]) and on TRα (setting [2]) was 100 to 1000 nM each time. For the same compound, on TRβ, the “T3-SI (selectivity index, EC50 (TRα)/EC50 (TRβ))” value is “+ (T3-SI ≤ 3×)”.

In the case of `CC(C)c1cc(Cc2c(Cl)cc(COCC(=O)O)cc2Cl)ccc1O` [Compound 28, 2-((3,5-dichloro-4-(4-hydroxy-3-isopropylbenzyl)benzyl)oxy)acetic acid], the EC50 on TRβ (setting [1]) and at TRα (setting [2]) was 10 to 100 nM each time. In addition, the “T3-SI (selectivity index, EC50 (TRα)/EC50 (TRβ))” value at TRβ is “++ (3× < T3-SI ≤ 30×)”.

As for `CC(C)c1cc(Cc2c(Cl)cc(CNCC(=O)O)cc2Cl)ccc1O` [Compound 30, (3,5-dichloro-4-(4-hydroxy-3-isopropylbenzyl)benzyl)glycine], the half-maximal effective concentration (EC50) at TRβ (setting [1]) and on TRα (setting [2]) was 100 to 1000 nM throughout. Also, the “T3-SI (selectivity index, EC50 (TRα)/EC50 (TRβ))” value on TRβ is “+ (T3-SI ≤ 3×)”.

Take `CC(C)c1c(O)ccc(Cc2c(Cl)cc(CC(=O)O)cc2Cl)c1F` [Compound 32, 2-(3,5-dichloro-4-(2-fluoro-4-hydroxy-3-isopropylbenzyl)phenyl)acetic acid]: the EC50 was under 10 nM on TRβ and 10 to 100 nM on TRα. The “T3-SI (selectivity index, EC50 (TRα)/EC50 (TRβ))” value on TRβ was “++ (3× < T3-SI ≤ 30×)”.

Consider `CC(c1ccc(F)cc1)c1c(O)ccc(Cc2c(Cl)cc(CC(=O)O)cc2Cl)c1F` (stereo not shown) [Compound 37, 2-(3,5-dichloro-4-(2-fluoro-3-(1-(4-fluorophenyl)ethyl)-4-hydroxybenzyl)phenyl)acetic acid], for which the EC50 was under 10 nM on TRβ (setting [1]) and 10 to 100 nM at TRα (setting [2]). For the same compound, the “T3-SI (selectivity index, EC50 (TRα)/EC50 (TRβ))” value on TRβ was “++ (3× < T3-SI ≤ 30×)”.

Turning to `CC(C)c1c(O)ccc(Cc2c(Cl)cc(CCC(=O)O)cc2Cl)c1F` [Compound 40, 3-(3,5-dichloro-4-(2-fluoro-4-hydroxy-3-isopropylbenzyl)phenyl)propanoic acid], the EC50 on TRβ (setting [1]) and on TRα (setting [2]) was under 10 nM throughout. The “T3-SI (selectivity index, EC50 (TRα)/EC50 (TRβ))” value on TRβ is “++ (3× < T3-SI ≤ 30×)”.

With `O=C(O)CCc1cc(Cl)c(Cc2ccc(O)c(-c3cc(OC(F)F)ccc3F)c2F)c(Cl)c1` [Compound 44, 3-(3,5-dichloro-4-((5′-(difluoromethoxy)-2,2′-difluoro-6-hydroxy-[1,1′-biphenyl]-3-yl)methyl)phenyl)propanoic acid], the EC50 at TRβ (setting [1]) is under 10 nM; at TRα (setting [2]), 10 to 100 nM. The “T3-SI (selectivity index, EC50 (TRα)/EC50 (TRβ))” value on TRβ is “++ (3× < T3-SI ≤ 30×)”.

Turning to `CC(C)c1c(O)ccc(Cc2c(Cl)cc(NC(=O)C(=O)O)cc2Cl)c1F` [Compound 63, 2-((3,5-dichloro-4-(2-fluoro-4-hydroxy-3-isopropylbenzyl)phenyl)amino)-2-oxoacetic acid], the “T3-SI (selectivity index, EC50 (TRα)/EC50 (TRβ))” value at TRβ is “++ (3× < T3-SI ≤ 30×)”.

On to `O=C(O)Cc1cc(Cl)c(Cc2ccc(O)c(C(=O)N3CCCCC3)c2)c(Cl)c1` [Compound 137, 2-(3,5-dichloro-4-(4-hydroxy-3-(piperidine-1-carbonyl)benzyl)phenyl)acetic acid], for which, on TRβ (setting [1]), the concentration giving a half-maximal response (EC50) was over 1000 nM.

`O=C(O)Cc1cc(Cl)c(Cc2ccc(O)c(CN3CCCC3=O)c2)c(Cl)c1` [Compound 138, 2-(3,5-dichloro-4-(4-hydroxy-3-((2-oxopyrrolidin-1-yl)methyl)benzyl)phenyl)acetic acid]: the half-maximal effective concentration (EC50) on TRα (setting [2]) is over 1000 nM.

For `O=C(O)CNc1cc(Cl)c(Cc2ccc(O)c(-c3cc(OC(F)F)ccc3F)c2F)c(Cl)c1` [Compound 139, (3,5-dichloro-4-((5′-(difluoromethoxy)-2,2′-difluoro-6-hydroxy-[1,1′-biphenyl]-3-yl)methyl)phenyl)glycine], the EC50 at TRα (setting [2]) fell in the range of 10 to 100 nM.

As to `CC(C)c1c(O)ccc(Cc2c(Cl)cc(N(C)CC(=O)O)cc2Cl)c1F` [Compound 140, N-(3,5-dichloro-4-(2-fluoro-4-hydroxy-3-isopropylbenzyl)phenyl)-N-methylglycine], the EC50 at TRα (setting [2]) was over 1000 nM.

Regarding `CC(C)c1cc(Cc2c(Cl)cc(C(CC(=O)O)C(=O)O)cc2Cl)ccc1O` (stereo not shown) [Compound 142, 2-(3,5-dichloro-4-(4-hydroxy-3-isopropylbenzyl)phenyl)succinic acid], on TRα (setting [2]), the concentration for a half-maximal effect (EC50) was over 1000 nM.

Regarding `CC(=O)NOCc1cc(Cl)c(Cc2ccc(O)c(C(C)C)c2F)c(Cl)c1` [Compound 211, N-((3,5-dichloro-4-(2-fluoro-4-hydroxy-3-isopropylbenzyl)benzyl)oxy)acetamide], the EC50 on TRα (setting [2]) was in the range of 100 to 1000 nM.
